Results: the NIST ThermoML archive (doi:10.1021/acs.jced.8b00132)
Where “and” joins values, the source holds several entries; their conditions need not be identical. Equal values may be shown once. ± gives the expanded uncertainty stated by the source.

O=C(C(F)(F)C(F)(F)F)C(F)(C(F)(F)F)C(F)(F)F [dodecafluoro-2-methylpentan-3-one]
Conditions	thermal conductivity
416.9 K, 36 kPa, Gas, hot wire	0.02006 ± 0.00094 W/m/K
416.9 K, 371 kPa, Gas, hot wire	0.0221 ± 0.001 W/m/K
416.9 K, 588 kPa, Gas, hot wire	0.02223 ± 0.0013 W/m/K
416.9 K, 16292 kPa, Liquid, transient hot wire	0.05129 ± 0.0011 W/m/K
416.91 K, 372 kPa, Gas, hot wire	0.02173 ± 0.001 W/m/K
416.94 K, 50897 kPa, Liquid, transient hot wire	0.06577 ± 0.0014 W/m/K
416.94 K, 50918 kPa, Liquid, transient hot wire	0.06559 ± 0.0014 W/m/K
416.96 K, 1022 kPa, Gas, transient hot wire	0.02164 ± 0.00073 W/m/K
416.96 K, 2206 kPa, Liquid, transient hot wire	0.04045 ± 0.00085 W/m/K
416.96 K, 24851 kPa, Liquid, transient hot wire	0.05549 ± 0.0011 W/m/K
416.96 K, 24868 kPa, Liquid, transient hot wire	0.05555 ± 0.0011 W/m/K
416.96 K, 35761 kPa, Liquid, transient hot wire	0.06013 ± 0.0012 W/m/K
416.97 K, 1022 kPa, Gas, transient hot wire	0.02164 ± 0.00073 W/m/K
416.97 K, 2207 kPa, Liquid, transient hot wire	0.04051 ± 0.00085 W/m/K
416.97 K, 35765 kPa, Liquid, transient hot wire	0.06009 ± 0.0012 W/m/K
416.98 K, 10573 kPa, Liquid, transient hot wire	0.04835 ± 0.001 W/m/K
416.98 K, 10595 kPa, Liquid, transient hot wire	0.04788 ± 0.001 W/m/K
417 K, 369 kPa, Gas, hot wire	0.0224 ± 0.001 W/m/K
417 K, 1132 kPa, Gas, transient hot wire	0.02284 ± 0.00076 W/m/K
417.01 K, 369 kPa, Gas, hot wire	0.02218 ± 0.001 W/m/K
417.01 K, 1132 kPa, Gas, transient hot wire	0.02288 ± 0.00076 W/m/K
417.02 K, 6421 kPa, Liquid, transient hot wire	0.04518 ± 0.00094 W/m/K
417.03 K, 36 kPa, Gas, hot wire	0.01958 ± 0.00092 W/m/K
417.04 K, 587 kPa, Gas, hot wire	0.0216 ± 0.001 W/m/K
417.04 K, 6421 kPa, Liquid, transient hot wire	0.0448 ± 0.00094 W/m/K
417.05 K, 587 kPa, Gas, hot wire	0.02156 ± 0.001 W/m/K
417.06 K, 16291 kPa, Liquid, transient hot wire	0.05136 ± 0.0011 W/m/K
417.06 K, 16299 kPa, Liquid, transient hot wire	0.05141 ± 0.0011 W/m/K
417.07 K, 1170 kPa, Liquid, transient hot wire	0.03917 ± 0.00082 W/m/K
417.07 K, 50875 kPa, Liquid, transient hot wire	0.06482 ± 0.0014 W/m/K
417.08 K, 3783 kPa, Liquid, transient hot wire	0.04192 ± 0.00088 W/m/K
417.08 K, 3784 kPa, Liquid, transient hot wire	0.04234 ± 0.00089 W/m/K
417.08 K, 50878 kPa, Liquid, transient hot wire	0.06554 ± 0.0014 W/m/K
417.11 K, 1022 kPa, Gas, transient hot wire	0.02183 ± 0.00073 W/m/K
417.11 K, 1023 kPa, Gas, transient hot wire	0.02181 ± 0.00073 W/m/K
417.11 K, 24870 kPa, Liquid, transient hot wire	0.05563 ± 0.0011 W/m/K
417.11 K, 35758 kPa, Liquid, transient hot wire	0.06018 ± 0.0012 W/m/K
417.11 K, 35760 kPa, Liquid, transient hot wire	0.06018 ± 0.0012 W/m/K
417.12 K, 368 kPa, Gas, hot wire	0.02238 ± 0.001 W/m/K
417.12 K, 24862 kPa, Liquid, transient hot wire	0.05569 ± 0.0011 W/m/K
417.13 K, 2206 kPa, Liquid, transient hot wire	0.04049 ± 0.00085 W/m/K
417.13 K, 10587 kPa, Liquid, transient hot wire	0.0479 ± 0.001 W/m/K
417.14 K, 36 kPa, Gas, hot wire	0.02006 ± 0.00094 W/m/K
417.15 K, 141 kPa, Gas, hot wire	0.02023 ± 0.00095 W/m/K and 0.0203 ± 0.00096 W/m/K
417.15 K, 588 kPa, Gas, hot wire	0.02157 ± 0.0013 W/m/K
417.15 K, 2206 kPa, Liquid, transient hot wire	0.04048 ± 0.00085 W/m/K
417.15 K, 10596 kPa, Liquid, transient hot wire	0.04784 ± 0.001 W/m/K
417.16 K, 36 kPa, Gas, hot wire	0.01976 ± 0.00093 W/m/K
417.16 K, 367 kPa, Gas, hot wire	0.02181 ± 0.001 W/m/K
417.16 K, 587 kPa, Gas, hot wire	0.02144 ± 0.0025 W/m/K
417.17 K, 1132 kPa, Gas, transient hot wire	0.02232 ± 0.00074 W/m/K
417.21 K, 6422 kPa, Liquid, transient hot wire	0.04496 ± 0.00094 W/m/K
417.21 K, 50843 kPa, Liquid, transient hot wire	0.06558 ± 0.0014 W/m/K
417.22 K, 6424 kPa, Liquid, transient hot wire	0.04481 ± 0.00094 W/m/K
417.22 K, 16290 kPa, Liquid, transient hot wire	0.05134 ± 0.0011 W/m/K
417.23 K, 16286 kPa, Liquid, transient hot wire	0.05137 ± 0.0011 W/m/K
417.23 K, 50866 kPa, Liquid, transient hot wire	0.06561 ± 0.0014 W/m/K
417.27 K, 36 kPa, Gas, hot wire	0.02022 ± 0.00095 W/m/K and 0.02032 ± 0.00095 W/m/K
417.28 K, 1023 kPa, Gas, transient hot wire	0.02198 ± 0.00073 W/m/K and 0.02197 ± 0.00073 W/m/K
417.28 K, 3783 kPa, Liquid, transient hot wire	0.04235 ± 0.00089 W/m/K
417.28 K, 3784 kPa, Liquid, transient hot wire	0.04243 ± 0.00089 W/m/K
417.28 K, 24853 kPa, Liquid, transient hot wire	0.0557 ± 0.0011 W/m/K
417.28 K, 24856 kPa, Liquid, transient hot wire	0.0557 ± 0.0011 W/m/K
417.28 K, 35752 kPa, Liquid, transient hot wire	0.06016 ± 0.0012 W/m/K
417.28 K, 35756 kPa, Liquid, transient hot wire	0.06019 ± 0.0012 W/m/K
417.29 K, 367 kPa, Gas, hot wire	0.02172 ± 0.001 W/m/K
417.29 K, 996 kPa, Gas, transient hot wire	0.02211 ± 0.0014 W/m/K and 0.02184 ± 0.0014 W/m/K
417.31 K, 140 kPa, Gas, hot wire	0.02018 ± 0.00095 W/m/K
417.32 K, 140 kPa, Gas, hot wire	0.02001 ± 0.00094 W/m/K
417.32 K, 10582 kPa, Liquid, transient hot wire	0.04781 ± 0.001 W/m/K
417.32 K, 10584 kPa, Liquid, transient hot wire	0.04786 ± 0.001 W/m/K
417.33 K, 788 kPa, Gas, transient hot wire	0.02096 ± 0.0013 W/m/K
417.33 K, 791 kPa, Gas, transient hot wire	0.02134 ± 0.0013 W/m/K
417.33 K, 2205 kPa, Liquid, transient hot wire	0.04065 ± 0.00085 W/m/K
417.34 K, 2205 kPa, Liquid, transient hot wire	0.0406 ± 0.00085 W/m/K
417.36 K, 50814 kPa, Liquid, transient hot wire	0.06551 ± 0.0014 W/m/K
417.37 K, 50821 kPa, Liquid, transient hot wire	0.0652 ± 0.0014 W/m/K
417.39 K, 16280 kPa, Liquid, transient hot wire	0.05131 ± 0.0011 W/m/K
417.4 K, 6421 kPa, Liquid, transient hot wire	0.0453 ± 0.00095 W/m/K
417.4 K, 6422 kPa, Liquid, transient hot wire	0.04487 ± 0.00094 W/m/K
417.41 K, 597 kPa, Gas, transient hot wire	0.02073 ± 0.0013 W/m/K
417.42 K, 36 kPa, Gas, hot wire	0.02028 ± 0.00095 W/m/K and 0.02029 ± 0.00095 W/m/K
417.43 K, 595 kPa, Gas, transient hot wire	0.02069 ± 0.0013 W/m/K
417.43 K, 1024 kPa, Gas, transient hot wire	0.02226 ± 0.00074 W/m/K and 0.02228 ± 0.00074 W/m/K
